Assay results published in patent US20190275088A1, “PRESERVATIVE SOLUTION FOR LIVE CELLS OR COMPOSITION CONTAINING LIVE CELLS” (TERUMO KABUSHIKI KAISHA, priority 2016, published 2019).

Experiments:
[1] = system: sheet-shaped human skeletal myoblast cell culture; experiment: Cell survival rate confirmation test, preservative solution based on Hanks' balanced salt solution HBSS (+) (PI staining, flow cytometry); conditions: 2° C. to 8° C.
Procedure: (§1) The sheet-shaped cell cultures were prepared using skeletal myoblast cells (with fibroblast cells contained therein) prepared from a human skeletal muscle by a usual or known method. A cell mixture of human skeletal myoblast cells and human fibroblast cells suspended in a 20% human serum-containing DMEM/F12 medium (Thermo Fisher Scientific Inc.) was seeded at 3.7×10^6 cells/well on a temperature-responsive culture dish (UpCell® 12 well Multi-well, CellSeed Inc.), and was then subjected to the sheet-formation cultivation at 37° C. under 5% CO2 for 12 to 26 hours. After the sheet-formation cultivation, the medium was removed, 700 μL of HBSS (+) (Thermo Fisher Scientific Inc.) which was chilled to 4° C. was added, and then the resultant was left to stand for 10 minutes. Then, gentle pipetting was conducted such as to detach the sheet-shaped cell culture completely. The thus detached sheet-shaped cell culture naturally shrank.
After the sheet-shaped cell culture was completely detached, HBSS (+) was removed, and a fresh supply of room-temperature HBSS (+) was added to conduct rinsing. […]
The sheet-shaped cell culture left to stand under the refrigerated conditions in (1) above was put to measurement of cell survival rate. […] The analysis was conducted using a flow cytometer (Becton Dickinson), and the proportion of PI-unstained cells contained in the whole cells admixed with PI was measured. […]

[2] = system: sheet-shaped human skeletal myoblast cell culture; experiment: Cell survival rate confirmation test, preservative solution based on physiological saline solution (PI staining, flow cytometry); conditions: 2° C. to 8° C.; for cell survival rate: three days
Procedure: as §1, with “completely.” for “completely. The thus detached sheet-shaped cell culture naturally shrank.”
After the sheet-shaped cell culture was completely detached, HBSS (+) was removed, and a fresh supply of room-temperature HBSS (+) was added to conduct rinsing. Such a washing step was repeated four times.
The sheet-shaped cell culture left to stand under the refrigerated conditions in (1) above was put to measurement of cell survival rate. After the sheet-shaped cell culture left to stand in the preservative solution for a predetermined period was dissociated with a trypsin-like protease, the cells were dispensed into a FACS tube to be 3.5×10^5 cells, followed by centrifugation, and the supernatant was discarded. To the resultant was added 3 ml of 0.5% BAS-containing PBS solution, and, after rinsing the cells by vortex, centrifugation was conducted, the supernatant was removed, and 500 μL of a propidium iodide (PI, Becton Dickinson) prepared to a final concentration of 0.6 μg/mL by use of a 0.5% BSA-containing PBS solution was added and mixed. […] The analysis was conducted using a flow cytometer (Becton Dickinson), and the proportion of PI-unstained cells contained in the whole cells admixed with PI was measured. […]

Compound	cell survival rate as compared to HBSS (+) not admixed with edaravone ([1]; 100 μM edaravone in HBSS (+), three days to seven days)	lowering in the number of live cells from three days to seven days of preservation, compared to edaravone-nonadded HBSS (+) ([1]; HBSS (+)-based edaravone-added preservative solution (100 μM))	cell survival rate as compared to the case of no addition of edaravone ([2]; 1 μM or 10 μM edaravone in physiological saline solution, five days)	cell survival rate ([2]; 10 μM vitamin E in physiological saline solution)	cell survival rate ([2]; 100 μM vitamin E in physiological saline solution)
CC1=NN(c2ccccc2)C(=O)C1 [edaravone, 3-methyl-1-phenyl-2-pyrazolin-5-one]	higher cell survival rate	restrained	increased	–	–
tocopherol [vitamin E]	–	–	–	approximately 65%	approximately 65%
